{"source": "ChEMBL document CHEMBL1201862", "about": "“PubChem BioAssay data set” (2004)", "assay_in_all_cases": "NCI-60 cell line screen, 48 h", "key": {"[1]": {"system": "DLD-1"}, "[2]": {"system": "DMS-114"}, "[3]": {"system": "DMS-273"}, "[4]": {"system": "HOP-18"}, "[5]": {"system": "KM-20L2"}, "[6]": {"system": "SNB-78"}, "[7]": {"system": "XF498"}, "[8]": {"system": "LXFL 529"}, "[9]": {"system": "RXF 631"}}, "note": "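Where inhibition never reached the appropriate level, the endpoint shown equals the highest concentration tested. Otherwise, values were interpolated linearly from a five-concentration, 48-hour dose response in 96-well plates. GI50: concentration for 50% inhibition of growth.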 Calls of active or inactive are those of the source. Cut-off read from the data, not from the text of the source: active = GI50 up to about 1.1 µM and inactive = higher."}
{"smiles": "CC[C@@]1(O)CC(OC2CC(N3CCOCC3)C(O)C(C)O2)c2c(O)c3c(c(O)c2[C@H]1O)C(=O)c1cccc(O)c1C3=O", "note": "(stereo partly drawn)", "values": [{"measurement": "GI50", "setting": "[1]", "value": "0.143 µM (active)"}, {"measurement": "GI50", "setting": "[2]", "value": "0.0935 µM (active)"}, {"measurement": "GI50", "setting": "[3]", "value": "0.0358 µM (active)"}, {"measurement": "GI50", "setting": "[4]", "value": "0.237 µM (active)"}, {"measurement": "GI50", "setting": "[5]", "value": "0.191 µM (active)"}, {"measurement": "GI50", "setting": "[6]", "value": "0.305 µM (active)"}, {"measurement": "GI50", "setting": "[7]", "value": "0.0493 µM (active)"}]}
{"smiles": "COc1cc2c(cc1OC)-c1cc(OC)c(OC)cc1[C@H]1CN3CCC[C@@]3(O)C=C21", "values": [{"measurement": "GI50", "setting": "[1]", "value": "< 0.0001 µM (active)"}, {"measurement": "GI50", "setting": "[2]", "value": "< 0.0001 µM (active)"}, {"measurement": "GI50", "setting": "[3]", "value": "< 0.0001 µM (active)"}, {"measurement": "GI50", "setting": "[4]", "value": "< 0.0001 µM (active)"}, {"measurement": "GI50", "setting": "[5]", "value": "< 0.0001 µM (active)"}, {"measurement": "GI50", "setting": "[8]", "value": "< 0.0001 µM (active)"}, {"measurement": "GI50", "setting": "[6]", "value": "< 0.0001 µM (active)"}, {"measurement": "GI50", "setting": "[7]", "value": "< 0.0001 µM (active)"}]}
{"smiles": "Cc1cc(Br)cc(C)c1NC(=O)C(=O)C(C(=O)c1ccncc1)C1OC(=O)c2ccccc21", "note": "(stereo not drawn)", "values": [{"measurement": "GI50", "setting": "[1]", "value": "> 100 µM (inactive)"}, {"measurement": "GI50", "setting": "[2]", "value": "> 100 µM (inactive)"}, {"measurement": "GI50", "setting": "[3]", "value": "> 100 µM (inactive)"}, {"measurement": "GI50", "setting": "[4]", "value": "> 100 µM (inactive)"}, {"measurement": "GI50", "setting": "[5]", "value": "> 100 µM (inactive)"}, {"measurement": "GI50", "setting": "[8]", "value": "> 100 µM (inactive)"}, {"measurement": "GI50", "setting": "[9]", "value": "> 100 µM (inactive)"}, {"measurement": "GI50", "setting": "[6]", "value": "> 100 µM (inactive)"}, {"measurement": "GI50", "setting": "[7]", "value": "> 100 µM (inactive)"}]}
{"smiles": "CCC(=O)NCC1(c2c[nH]c3ccccc23)SCCS1", "values": [{"measurement": "GI50", "setting": "[1]", "value": "> 100 µM (inactive)"}, {"measurement": "GI50", "setting": "[2]", "value": "47.5 µM (inactive)"}, {"measurement": "GI50", "setting": "[3]", "value": "> 100 µM (inactive)"}, {"measurement": "GI50", "setting": "[4]", "value": "> 100 µM (inactive)"}, {"measurement": "GI50", "setting": "[5]", "value": "> 100 µM (inactive)"}, {"measurement": "GI50", "setting": "[8]", "value": "> 100 µM (inactive)"}, {"measurement": "GI50", "setting": "[6]", "value": "> 100 µM (inactive)"}, {"measurement": "GI50", "setting": "[7]", "value": "> 100 µM (inactive)"}]}
{"smiles": "CCCCCCCCCC(=O)NC(Cc1ccc(O)cc1)C(=O)NCCCNCCCCNCCCNC(=O)[C@@H](N)CCCN=C(N)N", "note": "(stereo partly drawn)", "values": [{"measurement": "GI50", "setting": "[2]", "value": "61.8 µM (inactive)"}, {"measurement": "GI50", "setting": "[3]", "value": "20.9 µM (inactive)"}, {"measurement": "GI50", "setting": "[5]", "value": "> 100 µM (inactive)"}, {"measurement": "GI50", "setting": "[8]", "value": "77.3 µM (inactive)"}, {"measurement": "GI50", "setting": "[7]", "value": "> 100 µM (inactive)"}]}
{"smiles": "COC(=O)/C(=N\\Nc1nc(S)nn1N)C(C#N)c1ccc(Cl)cc1", "note": "(stereo not drawn)", "values": [{"measurement": "GI50", "setting": "[1]", "value": "> 100 µM (inactive)"}, {"measurement": "GI50", "setting": "[2]", "value": "> 100 µM (inactive)"}, {"measurement": "GI50", "setting": "[3]", "value": "> 100 µM (inactive)"}, {"measurement": "GI50", "setting": "[4]", "value": "> 100 µM (inactive)"}, {"measurement": "GI50", "setting": "[5]", "value": "> 100 µM (inactive)"}, {"measurement": "GI50", "setting": "[8]", "value": "> 100 µM (inactive)"}, {"measurement": "GI50", "setting": "[9]", "value": "> 100 µM (inactive)"}, {"measurement": "GI50", "setting": "[6]", "value": "> 100 µM (inactive)"}, {"measurement": "GI50", "setting": "[7]", "value": "> 100 µM (inactive)"}]}
{"smiles": "NC(CSSCC(N)Cc1ccccc1)Cc1ccccc1", "note": "(stereo not drawn)", "values": [{"measurement": "GI50", "setting": "[1]", "value": "49.5 µM (inactive)"}, {"measurement": "GI50", "setting": "[2]", "value": "39.2 µM (inactive)"}, {"measurement": "GI50", "setting": "[3]", "value": "> 10 µM (inactive)"}, {"measurement": "GI50", "setting": "[5]", "value": "71.1 µM (inactive)"}, {"measurement": "GI50", "setting": "[8]", "value": "36.1 µM (inactive)"}, {"measurement": "GI50", "setting": "[6]", "value": "> 100 µM (inactive)"}, {"measurement": "GI50", "setting": "[7]", "value": "27.1 µM (inactive)"}]}
{"smiles": "C[C@]12CC/C(=N\\O)C=C1CC[C@@H]1C2CC[C@@]2(C)C1CC[C@@H]2OC1CCCCO1", "note": "(stereo partly drawn)", "values": [{"measurement": "GI50", "setting": "[1]", "value": "30.7 µM (inactive)"}, {"measurement": "GI50", "setting": "[2]", "value": "22 µM (inactive)"}, {"measurement": "GI50", "setting": "[3]", "value": "17.7 µM (inactive)"}, {"measurement": "GI50", "setting": "[4]", "value": "16.4 µM (inactive)"}, {"measurement": "GI50", "setting": "[5]", "value": "14.4 µM (inactive)"}, {"measurement": "GI50", "setting": "[8]", "value": "17.2 µM (inactive)"}, {"measurement": "GI50", "setting": "[6]", "value": "19.1 µM (inactive)"}]}
{"smiles": "COCN1COCN(C)C1=O", "values": [{"measurement": "GI50", "setting": "[1]", "value": "> 100 µM (inactive)"}, {"measurement": "GI50", "setting": "[2]", "value": "> 100 µM (inactive)"}, {"measurement": "GI50", "setting": "[3]", "value": "> 100 µM (inactive)"}, {"measurement": "GI50", "setting": "[4]", "value": "> 100 µM (inactive)"}, {"measurement": "GI50", "setting": "[5]", "value": "> 100 µM (inactive)"}, {"measurement": "GI50", "setting": "[6]", "value": "> 100 µM (inactive)"}, {"measurement": "GI50", "setting": "[7]", "value": "> 100 µM (inactive)"}]}
{"smiles": "N#CC1CCCCOCCOCCOCCOCCOCCCCCC1=O", "note": "(stereo not drawn)", "values": [{"measurement": "GI50", "setting": "[1]", "value": "> 100 µM (inactive)"}, {"measurement": "GI50", "setting": "[2]", "value": "> 100 µM (inactive)"}, {"measurement": "GI50", "setting": "[3]", "value": "> 100 µM (inactive)"}, {"measurement": "GI50", "setting": "[4]", "value": "> 100 µM (inactive)"}, {"measurement": "GI50", "setting": "[5]", "value": "> 100 µM (inactive)"}, {"measurement": "GI50", "setting": "[8]", "value": "> 100 µM (inactive)"}, {"measurement": "GI50", "setting": "[9]", "value": "> 100 µM (inactive)"}, {"measurement": "GI50", "setting": "[6]", "value": "> 100 µM (inactive)"}]}
{"smiles": "COC(=O)/C(C#N)=C1\\CCC(Nc2cccc(C(F)(F)F)c2)N1C", "note": "(stereo not drawn)", "values": [{"measurement": "GI50", "setting": "[1]", "value": "57.5 µM (inactive)"}, {"measurement": "GI50", "setting": "[2]", "value": "> 10 µM (inactive)"}, {"measurement": "GI50", "setting": "[4]", "value": "> 100 µM (inactive)"}, {"measurement": "GI50", "setting": "[5]", "value": "56 µM (inactive)"}, {"measurement": "GI50", "setting": "[8]", "value": "74 µM (inactive)"}, {"measurement": "GI50", "setting": "[6]", "value": "> 100 µM (inactive)"}, {"measurement": "GI50", "setting": "[7]", "value": "66.2 µM (inactive)"}]}
{"smiles": "COc1ccc(NC(=O)CC/C(CC(=O)c2ccco2)=N/NC(=O)C(N)=O)cc1", "values": [{"measurement": "GI50", "setting": "[1]", "value": "> 100 µM (inactive)"}, {"measurement": "GI50", "setting": "[2]", "value": "35.2 µM (inactive)"}, {"measurement": "GI50", "setting": "[3]", "value": "> 100 µM (inactive)"}, {"measurement": "GI50", "setting": "[4]", "value": "> 100 µM (inactive)"}, {"measurement": "GI50", "setting": "[5]", "value": "> 100 µM (inactive)"}, {"measurement": "GI50", "setting": "[8]", "value": "65.5 µM (inactive)"}, {"measurement": "GI50", "setting": "[7]", "value": "82.8 µM (inactive)"}]}
{"smiles": "CSc1c([S+](C)[O-])[nH]c2cc(Br)cc(Br)c12", "note": "(stereo not drawn)", "values": [{"measurement": "GI50", "setting": "[1]", "value": "16.5 µM (inactive)"}, {"measurement": "GI50", "setting": "[3]", "value": "16.4 µM (inactive)"}, {"measurement": "GI50", "setting": "[4]", "value": "39.5 µM (inactive)"}, {"measurement": "GI50", "setting": "[8]", "value": "21.1 µM (inactive)"}, {"measurement": "GI50", "setting": "[6]", "value": "19.3 µM (inactive)"}]}
{"smiles": "CCOC(=O)Nc1ccc(S(=O)(=O)OC)cc1.CCOC(=O)Nc1ccc(S(=O)(=O)OC)cc1.Nc1ncnc2c1ncn2C1OC(CO)C(O)C1O", "note": "(stereo not drawn)", "values": [{"measurement": "GI50", "setting": "[1]", "value": "33.1 µM (inactive)"}, {"measurement": "GI50", "setting": "[2]", "value": "18 µM (inactive)"}, {"measurement": "GI50", "setting": "[3]", "value": "30.8 µM (inactive)"}, {"measurement": "GI50", "setting": "[4]", "value": "> 100 µM (inactive)"}, {"measurement": "GI50", "setting": "[5]", "value": "> 100 µM (inactive)"}, {"measurement": "GI50", "setting": "[8]", "value": "> 100 µM (inactive)"}, {"measurement": "GI50", "setting": "[9]", "value": "> 100 µM (inactive)"}, {"measurement": "GI50", "setting": "[6]", "value": "> 100 µM (inactive)"}, {"measurement": "GI50", "setting": "[7]", "value": "92.3 µM (inactive)"}]}
